Reference: PubChem BioAssay AID206 (DTP/NCI, 2004)
Several values for one entry are separate records, joined by “and”; a condition that tells them apart may be missing. Equal entries are not always repeated. Inconclusive results are not listed.

Tested on: nude mice, HT29 intrarenal xenograft, tumor weight T/C
Experiment: NCI In Vivo Anticancer Drug Screen. Data for tumor model HT29;CX-1 Human Adenocarcinoma (MER+) (intrarenal inoculation) in NU/NU Swiss (nude) mice
Conditions: endpoint: mean tumor weight change, higher = larger tumour
Outline: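 Tumor-bearing mice received test compound or vehicle, and tumor size or survival was recorded. Values are the treated-group measurement divided by the vehicle-treated control measurement.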

[1] = dose: 150.0 mg/kg/injection, schedule: Q04DX004 (sc), vehicle: saline with Tween-80
[2] = dose: 100.0 mg/kg/injection, schedule: Q04DX004 (sc), vehicle: water

C=C(NC(=O)C(=C)NC(=O)c1csc(C2=NC3c4csc(n4)C4NC(=O)c5csc(n5)C(C(C)(O)C(C)O)NC(=O)C5CSC(=N5)/C(=C/C)NC(=O)C(C(C)O)NC(=O)c5csc(n5)C3(CC2)NC(=O)C(C)NC(=O)C(=C)NC(=O)C(C)NC(=O)C(C(C)CC)NC2C=Cc3c(C(C)O)cc(nc3C2O)C(=O)OC4C)n1)C(N)=O (stereo not given)
T/C (dose: 200.0 mg/kg/injection, schedule: Q01DX010 (sc), vehicle: Klucel (hydroxypropylcellulose) (HPC)): 34 % of control | T/C (dose: 800.0 mg/kg/injection, schedule: Q01DX010 (sc), vehicle: Klucel (hydroxypropylcellulose) (HPC)): 27 % of control and 49 % of control | T/C (dose: 3200.0 mg/kg/injection, schedule: Q01DX010 (sc), vehicle: Klucel (hydroxypropylcellulose) (HPC)): 50 % of control

C[Si](C)(C)O/C=C1\CCCCC1=O
T/C (dose: 50.0 mg/kg/injection, schedule: Q04DX004 (sc), vehicle: saline with Tween-80): 163 % of control | T/C (dose: 100.0 mg/kg/injection, schedule: Q04DX004 (sc), vehicle: saline with Tween-80): 92 % of control | T/C (dose: 200.0 mg/kg/injection, schedule: Q04DX004 (sc), vehicle: saline with Tween-80): 123 % of control | T/C (dose: 400.0 mg/kg/injection, schedule: Q04DX004 (sc), vehicle: saline with Tween-80): 65 % of control

CCC1=C2C(=O)c3ccccc3C2=C(C)S(=O)(=O)O1
T/C [1]: 70 % of control | T/C (dose: 300.0 mg/kg/injection, schedule: Q04DX004 (sc), vehicle: saline with Tween-80): 50 % of control | T/C (dose: 1200.0 mg/kg/injection, schedule: Q04DX004 (sc), vehicle: saline with Tween-80): 89 % of control

C1OC1C1CO1 (stereo not given)
T/C (dose: 12.5 mg/kg/injection, schedule: Q01DX010 (sc), vehicle: saline): 164 % of control | T/C (dose: 25.0 mg/kg/injection, schedule: Q01DX010 (sc), vehicle: saline): 168 % of control

O=C1C(NCC(O)CO)=C(N2CC2)C(=O)C(NCC(O)CO)=C1N1CC1 (stereo not given)
T/C (dose: 4.0 mg/kg/injection, schedule: Q04DX004 (sc), vehicle: saline): 86 % of control | T/C (dose: 8.0 mg/kg/injection, schedule: Q04DX004 (sc), vehicle: saline): 28 % of control | T/C (dose: 16.0 mg/kg/injection, schedule: Q04DX004 (sc), vehicle: saline): 25 % of control

C/C(=N/NC(N)=S)c1ccc2ccccc2c1
T/C (dose: 12.5 mg/kg/injection, schedule: Q01DX010 (sc), vehicle: saline with Tween-80): 177 % of control | T/C (dose: 25.0 mg/kg/injection, schedule: Q01DX010 (sc), vehicle: saline with Tween-80): 70 % of control | T/C (dose: 50.0 mg/kg/injection, schedule: Q01DX010 (sc), vehicle: saline with Tween-80): 57 % of control | T/C (dose: 100.0 mg/kg/injection, schedule: Q01DX010 (sc), vehicle: saline with Tween-80): 89 % of control

O=c1[nH]c(=O)n(C2CC(O)C(CO)O2)cc1I (stereo not given)
T/C (dose: 200.0 mg/kg/injection, schedule: Q01DX010 (sc), vehicle: saline with Tween-80): 91 % of control

[N-]=[N+]=C1N=CN=C1c1ncn[nH]1
T/C (dose: 12.5 mg/kg/injection, schedule: Q01DX010 (sc), vehicle: Klucel (hydroxypropylcellulose) (HPC)): 73 % of control | T/C (dose: 25.0 mg/kg/injection, schedule: Q01DX010 (sc), vehicle: Klucel (hydroxypropylcellulose) (HPC)): 41 % of control

COc1cccc2c1C(=O)c1c(O)c3c(c(O)c1C2=O)CC(O)(/C(C)=N/NC(=O)CCCCC(=O)N/N=C(\C)C1(O)Cc2c(O)c4c(c(O)c2C(OC2CC(N)C(O)C(C)O2)C1)C(=O)c1c(OC)cccc1C4=O)CC3OC1CC(N)C(O)C(C)O1 (stereo not given)
T/C (dose: 12.5 mg/kg/injection, schedule: Q04DX004 (sc), vehicle: water): 66 % of control | T/C (dose: 25.0 mg/kg/injection, schedule: Q04DX004 (sc), vehicle: water): 98 % of control | T/C (dose: 50.0 mg/kg/injection, schedule: Q04DX004 (sc), vehicle: water): 104 % of control | T/C [2]: 152 % of control

COc1cccc2c1C(=O)c1c(O)c3c(c(O)c1C2=O)C[C@@](O)(C(C)=O)C[C@@H]3OC1CC(N(Cc2ccccc2)Cc2ccccc2)C(O)C(C)O1 (stereo not given in full)
T/C (dose: 25.0 mg/kg/injection, schedule: Q01DX010 (sc), vehicle: water): 36 % of control | T/C (dose: 31.25 mg/kg/injection, schedule: Q04DX004 (sc), vehicle: water): 104 % of control and 212 % of control | T/C (dose: 62.5 mg/kg/injection, schedule: Q04DX004 (sc), vehicle: water): 97 % of control and 220 % of control

CCS/C(SC)=C(/c1ccccc1)[P+](c1ccccc1)(c1ccccc1)c1ccccc1
T/C (dose: 18.75 mg/kg/injection, schedule: Q04DX004 (sc), vehicle: Klucel (hydroxypropylcellulose) (HPC)): 93 % of control

COC1=C(C)C(=O)C2=C(C1=O)C1C3CC4=C(C(=O)C(OC)=C(C)C4=O)C(CNC(=O)C(C)=O)N3C(C#N)C(C2)N1C (stereo not given)
T/C (dose: 1.0 mg/kg/injection, schedule: Q04DX004 (sc), vehicle: Klucel (hydroxypropylcellulose) (HPC)): 99 % of control | T/C (dose: 2.0 mg/kg/injection, schedule: Q04DX004 (sc), vehicle: Klucel (hydroxypropylcellulose) (HPC)): 75 % of control

Nc1nc(=S)c2[nH]cnc2[nH]1
T/C (dose: 0.39 mg/kg/injection, schedule: Q01DX010 (sc), vehicle: Klucel (hydroxypropylcellulose) (HPC)): 102 % of control | T/C (dose: 0.78 mg/kg/injection, schedule: Q01DX010 (sc), vehicle: Klucel (hydroxypropylcellulose) (HPC)): 91 % of control

C1CC[N-]CC1.C1CC[N-]CC1.C1CC[N-]CC1.[Cl][Rh]([Cl])[Cl]
T/C (dose: 150.0 mg/kg/injection, schedule: Q04DX004 (sc), vehicle: saline): 36 % of control | T/C (dose: 300.0 mg/kg/injection, schedule: Q04DX004 (sc), vehicle: saline): 25 % of control

Cc1cc(NS(=O)(=O)c2ccc(N=Nc3cc(N=Nc4ccc(S(=O)(=O)Nc5cc(C)nc(C)n5)cc4)c4c(NC(=O)C(Cl)Cl)cccc4c3OC(=O)C(Cl)Cl)cc2)nc(C)n1 (tested in a mixture with another compound)
T/C (dose: 150.0 mg/kg/injection, schedule: Q04DX004 (sc), vehicle: suspension in saline): 204 % of control | T/C (dose: 1200.0 mg/kg/injection, schedule: Q04DX004 (sc), vehicle: suspension in saline): 72 % of control

COC1=CC(=O)C(OC)=C(OC)C1=O
T/C (dose: 38.0 mg/kg/injection, schedule: Q04DX004 (sc), vehicle: saline with Tween-80): 78 % of control | T/C (dose: 75.0 mg/kg/injection, schedule: Q04DX004 (sc), vehicle: saline with Tween-80): 88 % of control | T/C [1]: 89 % of control

CCC1(O)CC2CN(CCc3c([nH]c4ccccc34)C(C(=O)OC)(c3cc4c(cc3OC)N(C)C3C(O)(C(=O)NCCSSCCNC(=O)C5(O)C(O)C6(CC)C=CCN7CCC8(c9cc(C%10(C(=O)OC)CC%11CN(CCc%12c%10[nH]c%10ccccc%12%10)CC(O)(CC)C%11)c(OC)cc9N(C)C58)C76)C(O)C5(CC)C=CCN6CCC43C65)C2)C1 (stereo not given)
T/C (dose: 0.38 mg/kg/injection, schedule: Q04DX004 (sc), vehicle: suspension in saline): 85 % of control | T/C (dose: 0.75 mg/kg/injection, schedule: Q04DX004 (sc), vehicle: saline): 39 % of control | T/C (dose: 0.75 mg/kg/injection, schedule: Q04DX004 (sc), vehicle: suspension in saline): 84 % of control | T/C (dose: 1.5 mg/kg/injection, schedule: Q04DX004 (sc), vehicle: saline): 22 % of control and 29 % of control | T/C (dose: 1.5 mg/kg/injection, schedule: Q04DX004 (sc), vehicle: suspension in saline): 44 % of control | T/C (dose: 3.0 mg/kg/injection, schedule: Q04DX004 (sc), vehicle: saline): -5 % of control | T/C (dose: 3.0 mg/kg/injection, schedule: Q04DX004 (sc), vehicle: suspension in saline): 55 % of control | T/C (dose: 6.0 mg/kg/injection, schedule: Q04DX004 (sc), vehicle: suspension in saline): 51 % of control

Cc1cc(N/N=C/c2ccccn2)nc2ccccc12
T/C (dose: 37.5 mg/kg/injection, schedule: Q04DX004 (sc), vehicle: Klucel (hydroxypropylcellulose) (HPC)): 101 % of control | T/C (dose: 75.0 mg/kg/injection, schedule: Q04DX004 (sc), vehicle: Klucel (hydroxypropylcellulose) (HPC)): 107 % of control | T/C (dose: 150.0 mg/kg/injection, schedule: Q04DX004 (sc), vehicle: Klucel (hydroxypropylcellulose) (HPC)): 123 % of control | T/C (dose: 300.0 mg/kg/injection, schedule: Q04DX004 (sc), vehicle: Klucel (hydroxypropylcellulose) (HPC)): 90 % of control

C=C(C)[C@H]1Cc2c(ccc3c2O[C@@H]2COc4cc(OC)c(OC)cc4[C@@H]2C3=O)O1
T/C (dose: 2.0 mg/kg/injection, schedule: Q01DX010 (sc), vehicle: saline with Tween-80): 161 % of control | T/C (dose: 4.0 mg/kg/injection, schedule: Q01DX010 (sc), vehicle: saline with Tween-80): 29 % of control | T/C (dose: 8.0 mg/kg/injection, schedule: Q01DX010 (sc), vehicle: saline with Tween-80): 57 % of control

CC(=O)NC(C=O)OCC=O (stereo not given)
T/C [2]: 106 % of control | T/C (dose: 200.0 mg/kg/injection, schedule: Q04DX004 (sc), vehicle: water): 121 % of control

CNNCc1ccc(C(=O)NC(C)C)cc1
T/C (dose: 50.0 mg/kg/injection, schedule: Q01DX010 (sc), vehicle: saline): 194 % of control | T/C (dose: 200.0 mg/kg/injection, schedule: Q01DX010 (sc), vehicle: saline): 63 % of control and 77 % of control
